In patent US20250313548A1 (Actio Biosciences, Inc., priority 2023, published 2025) one finds IC50 data, which are given here for 46 molecules.

Some results are limits rather than exact numbers.

human, KCNT1, sequence (Q5JUK3 whole entry): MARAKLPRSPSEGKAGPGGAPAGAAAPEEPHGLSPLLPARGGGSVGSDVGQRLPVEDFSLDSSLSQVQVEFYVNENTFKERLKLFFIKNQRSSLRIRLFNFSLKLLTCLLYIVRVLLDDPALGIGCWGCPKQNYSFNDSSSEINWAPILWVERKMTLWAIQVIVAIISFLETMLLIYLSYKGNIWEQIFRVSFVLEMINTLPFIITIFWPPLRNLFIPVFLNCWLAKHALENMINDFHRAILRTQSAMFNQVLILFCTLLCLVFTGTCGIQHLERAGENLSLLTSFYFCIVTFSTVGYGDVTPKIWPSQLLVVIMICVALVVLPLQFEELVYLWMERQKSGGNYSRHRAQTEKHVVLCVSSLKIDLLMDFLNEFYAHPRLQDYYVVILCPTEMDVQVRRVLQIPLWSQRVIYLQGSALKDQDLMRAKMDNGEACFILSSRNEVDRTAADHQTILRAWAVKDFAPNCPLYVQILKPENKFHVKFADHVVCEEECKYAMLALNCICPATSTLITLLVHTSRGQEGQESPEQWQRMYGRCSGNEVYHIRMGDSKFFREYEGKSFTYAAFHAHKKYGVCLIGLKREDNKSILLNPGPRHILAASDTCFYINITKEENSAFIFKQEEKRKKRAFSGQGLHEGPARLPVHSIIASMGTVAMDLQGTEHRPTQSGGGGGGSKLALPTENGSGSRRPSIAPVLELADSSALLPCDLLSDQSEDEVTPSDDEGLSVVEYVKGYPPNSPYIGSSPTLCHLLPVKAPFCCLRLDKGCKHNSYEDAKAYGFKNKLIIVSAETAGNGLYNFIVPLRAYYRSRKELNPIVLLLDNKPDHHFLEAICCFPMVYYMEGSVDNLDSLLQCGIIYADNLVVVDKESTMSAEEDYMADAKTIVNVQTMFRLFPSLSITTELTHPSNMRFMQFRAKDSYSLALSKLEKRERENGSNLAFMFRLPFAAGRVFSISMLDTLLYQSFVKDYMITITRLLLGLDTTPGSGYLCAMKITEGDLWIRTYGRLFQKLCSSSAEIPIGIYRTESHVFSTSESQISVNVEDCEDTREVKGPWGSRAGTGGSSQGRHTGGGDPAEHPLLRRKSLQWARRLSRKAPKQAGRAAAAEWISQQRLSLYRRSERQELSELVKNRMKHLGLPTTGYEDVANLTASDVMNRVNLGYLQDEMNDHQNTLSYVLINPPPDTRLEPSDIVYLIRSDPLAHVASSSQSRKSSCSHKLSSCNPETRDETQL

For this assay, the target named is human, KCNT1 (Homo sapiens (Human), UniProt Q5JUK3). The assay can be described thus: FLIPR Tl/K Flux Assay. The assay is classed as cell-based. To be noted: HEK293 cells stably expressing human KCNT1; Tl+ flux stimulated with EC80 of agonist Loxapine. An outline of the steps:
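HEK293 cells stably expressing human KCNT1 were loaded with FLIPR potassium dye in HEPES/HBSS pH 7.4 with 5 mM probenecid, 1 h at 25 °C, then given test compound for 30 min at 25 °C. Tl+ flux was triggered with chloride-free buffer containing Tl+ and EC80 loxapine and read 160 s. IC50 came from Hill fits of % inhibition.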
For `N#Cc1cc(C(=O)N[C@H]2CCCn3nc(-c4ccnc(C(F)(F)F)c4)cc32)ccc1F` [Compound I-343a, (S)-3-Cyano-4-fluoro-N-(2-(2-(trifluoromethyl)pyridin-4-yl)-4,5,6,7-tetrahydropyrazolo[1,5-a]pyridin-4-yl)benzamide], the IC50 is under 250 nM.
For `COc1cc(-c2cc3n(n2)CCC[C@@H]3NC(=O)c2cc(C(F)(F)F)nn2C)cc(OC)n1` [Compound I-344a], the IC50 was over 1000 nM.
Then `Cn1nc(C2CC2)cc1C(=O)N[C@H]1CCCn2nc(-c3ccnc(C(F)(F)F)c3)cc21` [Compound I-347a], with under 250 nM; and `Cn1nc(C(F)F)cc1C(=O)N[C@H]1CCCn2nc(-c3ccnc(C(F)(F)F)c3)cc21` [Compound I-348a], with under 250 nM.
Then `N#Cc1ccc(C(=O)N[C@H]2CCCn3nc(-c4ccnc(C(F)(F)F)c4)cc32)cc1` [Compound I-349a], with under 250 nM.
`CC(C)c1cc(C(=O)N[C@H]2CCCn3nc(-c4ccnc(C(F)(F)F)c4)cc32)n(C)n1` [Compound I-350a] came in with a concentration for half-maximal inhibition (IC50) of under 250 nM.
For `Cn1nc(-c2ccccc2)cc1C(=O)N[C@H]1CCCn2nc(-c3ccnc(C(F)(F)F)c3)cc21` [Compound I-351a], the IC50 was under 250 nM.
For `O=C(N[C@H]1CCCn2nc(-c3ccnc(C(F)(F)F)c3)cc21)c1cc(Cl)cc(C(F)(F)F)c1` [Compound I-352a], the IC50 is under 250 nM.
For `Cc1c(-c2ccnc(C(F)(F)F)c2)nn2c1[C@H](NC(=O)c1cc(C(F)(F)F)nn1C)CCC2` [Compound I-353b], the IC50 lay in the range of 500 to 1000 nM.
Take `COc1cc(-c2cc3n(n2)CCC[C@@H]3NC(=O)c2cc(Cl)cc(C(F)(F)F)c2)ccn1` [Compound I-354a]: the IC50 was under 250 nM.
With `COc1cc(-c2cc3n(n2)CCC[C@@H]3NC(=O)c2cccc(C(F)(F)F)c2)ccn1` [Compound I-355a] the figure was under 250 nM; with `COc1cc(-c2cc3n(n2)CCC[C@@H]3NC(=O)c2cccc(C(F)(F)F)n2)ccn1` [Compound I-356a], 250 to 500 nM; with `COc1cc(-c2cc3n(n2)CCC[C@@H]3NC(=O)c2cncc(C(F)(F)F)c2)ccn1` [Compound I-357a], under 250 nM.
The molecule `Cc1nc(C(F)(F)F)sc1C(=O)N[C@H]1CCCn2nc(-c3ccnc(C(F)(F)F)c3)cc21` [Compound I-358a] had an IC50 of under 250 nM.
The molecule `Cc1c(-n2cc3c(n2)CCC[C@@H]3NC(=O)c2cc(C(F)(F)F)nn2C)ccnc1C(F)(F)F` [Compound I-359a] had an IC50 of under 250 nM.
Molecule `CCOc1cc(-n2cc3c(n2)CCCC[C@@H]3NC(=O)c2cc(C(F)(F)F)nn2C)ccn1` [Compound I-360a] came in with an IC50 of under 250 nM.
Then `CCOc1cc(-n2cc3c(n2)CCCC[C@H]3NC(=O)c2cc(C(F)(F)F)nn2C)ccn1` [Compound I-360b], with over 1000 nM; and `CCOc1cc(-n2cc3c(n2)CCCC[C@@H]3NC(=O)c2cccc(C)c2)ccn1` [Compound I-361a], with under 250 nM.
`CCOc1cc(-n2cc3c(n2)CCCC[C@H]3NC(=O)c2cccc(C)c2)ccn1` [Compound I-361b] yielded an IC50 of over 1000 nM.
As for `Cn1nc(C2CCC2)cc1C(=O)N[C@H]1CCCn2nc(-c3ccnc(C(F)(F)F)c3)cc21` [Compound I-362a], the IC50 is under 250 nM.
As for `Cn1nc(C(C)(F)F)cc1C(=O)N[C@H]1CCCn2nc(-c3ccnc(C(F)(F)F)c3)cc21` [Compound I-363a], the IC50 is under 250 nM.
`COc1cc(-c2cc3n(n2)CCC[C@@H]3NC(=O)c2ccnc(C(F)(F)F)c2)ccn1` [Compound I-364a] returned an IC50 of under 250 nM.
`COc1cc(-c2cc3n(n2)CCC[C@@H]3NC(=O)c2cc(C(F)(F)F)ccn2)ccn1` [Compound I-365a] returned an IC50 of 250 to 500 nM.
With `COc1cc(-c2cc3n(n2)CCC[C@@H]3NC(=O)c2cc(C(F)(F)F)nn2C)ccn1` [Compound I-366a], the IC50 is under 250 nM.
Regarding `CC(C)Oc1cc(C(=O)N[C@H]2CCCn3nc(-c4ccnc(C(F)(F)F)c4)cc32)n(C)n1` [Compound I-367a], the IC50 is under 250 nM.
Regarding `O=C(N[C@H]1CCCn2nc(-c3ccnc(C(F)(F)F)c3)cc21)c1cc2n(n1)CCC2` [Compound I-368a], the IC50 was over 1000 nM.
On to `Cn1nc(C2CC2)cc1C(=O)N[C@H]1CCCCc2nn(-c3ccnc(C(F)(F)F)c3)cc21` [Compound I-369a], for which the IC50 is under 250 nM.
Turning to `Cn1nc(C2CC2)cc1C(=O)N[C@@H]1CCCCc2nn(-c3ccnc(C(F)(F)F)c3)cc21` [Compound I-369b], the IC50 was over 1000 nM.
On to `Cn1nc(OC2CC2)cc1C(=O)N[C@H]1CCCn2nc(-c3ccnc(C(F)(F)F)c3)cc21` [Compound I-370a], for which the IC50 is under 250 nM.
The molecule `O=C(N[C@H]1CCCn2nc(-c3ccnc(C(F)(F)F)c3)cc21)c1cc(C(F)(F)F)nn1C1CC1` [Compound I-371a] returned an IC50 of under 250 nM.
On to `Cc1cc(C)cc(C(=O)N[C@H]2CCc3nn(-c4ccnc(C(F)(F)F)c4)cc32)c1` [Compound I-372a], for which the IC50 was under 250 nM.
Take `Cc1cc(C)cc(C(=O)N[C@@H]2CCc3nn(-c4ccnc(C(F)(F)F)c4)cc32)c1` [Compound I-372b]: the IC50 was in the range of 500 to 1000 nM.
`Cc1cc(C(=O)N[C@H]2CCc3nn(-c4ccnc(C(F)(F)F)c4)cc32)cc(C(F)(F)F)c1` [Compound I-373a] registered an IC50 of under 250 nM.
For `Cc1cc(C(=O)N[C@@H]2CCc3nn(-c4ccnc(C(F)(F)F)c4)cc32)cc(C(F)(F)F)c1` [Compound I-373b], the IC50 is under 250 nM.
In the case of `Cn1nc(C(F)(F)F)cc1C(=O)N[C@H]1CCCc2nn(-c3ccnc(C#N)c3)cc21` [Compound I-375a], the IC50 is over 1000 nM.
With `COc1cc(-n2cc3c(n2)CCCC[C@@H]3NC(=O)c2cccc(C)c2)ccn1` [Compound I-376a] the figure was under 250 nM; with `COc1cc(-n2cc3c(n2)CCCC[C@H]3NC(=O)c2cccc(C)c2)ccn1` [Compound I-376b], over 1000 nM; with `Cn1nc(C(F)(F)F)cc1C(=O)N[C@H]1CCCn2nc(-c3ccnc(C4CCC4)c3)cc21` [Compound I-377a], under 250 nM.
The molecule `Cn1nc(C(F)(F)F)cc1C(=O)N[C@H]1CCCn2nc(-c3ccnc(OC(F)F)c3)cc21` [Compound I-378a] showed an IC50 of under 250 nM.
With `Cn1nc(C(F)(F)F)cc1C(=O)N[C@H]1CCCn2nc(-c3ccnc(C(C)(F)F)c3)cc21` [Compound I-379a], the IC50 is under 250 nM.
Molecule `CC(C)n1nc(C(F)(F)F)cc1C(=O)N[C@H]1CCCn2nc(-c3ccnc(C(F)(F)F)c3)cc21` [Compound I-381a] came in with an IC50 of under 250 nM.
With `O=C(N[C@H]1CCCn2nc(-c3ccnc(C(F)(F)F)c3)cc21)c1ccn(C(F)(F)F)n1` [Compound I-382a], the IC50 was under 250 nM.
On to `Cn1nc(C(F)(F)F)cc1C(=O)N[C@H]1CCCc2ncc(-c3ccnc(C(F)(F)F)c3)cc21` [Compound I-383a], for which the IC50 is over 1000 nM.
As for `Cn1nc(C(F)(F)F)cc1C(=O)N[C@@H]1CCCc2ncc(-c3ccnc(C(F)(F)F)c3)cc21` [Compound I-383b], the half-maximal inhibitory concentration (IC50) was over 1000 nM.
Molecule `Cc1cc(F)cc(C(=O)N[C@@H]2CCc3nn(-c4ccnc(C(F)(F)F)c4)cc32)c1` [Compound I-384b] returned an IC50 of under 250 nM.
In the case of `Cn1nc(C(F)(F)F)cc1C(=O)N[C@H]1CCCCn2nc(-c3ccnc(C(F)(F)F)c3)cc21` [Compound I-385a], the IC50 is under 250 nM.

The IC50 is the concentration that gives 50% inhibition.
